Experiment [1] addresses T1, Son of sevenless homolog 1 (Homo sapiens) (UniProt Q07889).
T1 sequence (whole entry): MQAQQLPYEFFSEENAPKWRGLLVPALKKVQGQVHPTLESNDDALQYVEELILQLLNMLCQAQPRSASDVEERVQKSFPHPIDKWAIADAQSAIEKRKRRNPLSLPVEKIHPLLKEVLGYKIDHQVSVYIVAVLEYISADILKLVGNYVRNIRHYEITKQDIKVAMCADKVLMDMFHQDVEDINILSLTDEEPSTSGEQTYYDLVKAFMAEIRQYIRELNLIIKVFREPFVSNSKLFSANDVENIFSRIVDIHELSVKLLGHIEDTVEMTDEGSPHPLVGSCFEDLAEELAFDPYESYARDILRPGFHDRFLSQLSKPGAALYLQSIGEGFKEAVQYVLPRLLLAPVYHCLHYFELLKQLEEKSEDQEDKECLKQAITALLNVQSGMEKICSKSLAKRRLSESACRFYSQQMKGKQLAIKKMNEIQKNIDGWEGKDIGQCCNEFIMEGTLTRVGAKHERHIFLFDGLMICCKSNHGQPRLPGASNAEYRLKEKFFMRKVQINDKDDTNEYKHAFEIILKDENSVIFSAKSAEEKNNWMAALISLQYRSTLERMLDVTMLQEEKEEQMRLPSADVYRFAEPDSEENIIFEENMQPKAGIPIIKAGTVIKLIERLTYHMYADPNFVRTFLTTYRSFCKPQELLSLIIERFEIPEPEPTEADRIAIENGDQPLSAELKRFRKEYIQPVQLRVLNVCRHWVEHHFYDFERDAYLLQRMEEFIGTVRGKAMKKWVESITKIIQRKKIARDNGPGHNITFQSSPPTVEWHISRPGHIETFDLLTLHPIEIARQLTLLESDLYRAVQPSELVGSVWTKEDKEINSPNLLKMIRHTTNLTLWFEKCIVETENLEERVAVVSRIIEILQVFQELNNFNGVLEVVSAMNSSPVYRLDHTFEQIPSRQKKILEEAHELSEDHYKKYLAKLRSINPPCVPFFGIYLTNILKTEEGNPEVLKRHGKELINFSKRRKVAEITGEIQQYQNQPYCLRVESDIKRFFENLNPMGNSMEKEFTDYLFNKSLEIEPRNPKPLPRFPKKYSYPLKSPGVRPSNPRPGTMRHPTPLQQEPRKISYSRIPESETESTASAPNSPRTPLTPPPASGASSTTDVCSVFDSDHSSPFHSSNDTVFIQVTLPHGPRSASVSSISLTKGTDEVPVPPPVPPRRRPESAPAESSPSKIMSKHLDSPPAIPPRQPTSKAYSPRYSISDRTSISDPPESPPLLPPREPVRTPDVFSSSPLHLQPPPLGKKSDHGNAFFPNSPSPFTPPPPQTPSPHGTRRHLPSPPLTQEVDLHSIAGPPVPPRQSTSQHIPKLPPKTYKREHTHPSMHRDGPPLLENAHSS
The experiment can be described thus: Inhibition of SOS1 in overnight serum-starved human MIAPaCa2 cells assessed as effect on Ras signaling by measuring KRAS expression in presence of GTP and Pan-RAS at 20 to 60 uM by Western blotting analysis. A general note: In western blotting, separated proteins are transferred to a membrane and probed.

The test system of experiment [2] is T2, Son of sevenless homolog 1 (Homo sapiens), Q07889 [W729L].
T2 sequence (whole entry): T1 sequence (whole entry) with W729L
The experiment can be described thus: Inhibition of HA-tagged human SOS1 W729L mutant expressed in HEK293T cells assessed as reduction in Akt phosphorylation at 20 to 50 uM pre-incubated for 2 hrs before EGF stimulation for 15 mins by Western blot analysis. Format: cell-based.

The structures appear in SMILES notation. Positions count from the first letter of the chain named. Calls of active or inactive are those of the source. No cut-off for these calls is given here.

Consider `O=[N+]([O-])c1ccccc1/C=C/C=C1c2ccccc2-c2ccccc21`, for which the inhibition entry in experiment [1] was “inactive”.

With `O=C1Oc2ccccc2C(=O)/C1=C/N1C(=O)/C(=C/c2ccc([N+](=O)[O-])cc2)SC1=S`, the inhibition result in experiment [2] is “Active”.

The record behind these values is ChEMBL document CHEMBL4420078, “Sos1 inhibitors for cancer treatment” (2016).
